Assay [1] concerns acetylated α-tubulin in CCHE-45 cells. The assay is described as follows: Western blot analysis of acetylated α-tubulin in CCHE-45 cells. It counts as cell-based. The conditions noted are these: 100 µM, 24 h. As to the method: CCHE-45 cells were treated with 100 µM of test compound for 24 h. HL60 cell line (a kind gift from Professor Azza Kamel from the National Cancer Institute, Cairo University); and is cultured in RPMI-1640 (Lonza, BE-12-702F) supplemented with 10% Fetal Bovine Serum (FBS, Gibco, 12483–020) and 100 U/ml penicillin and 100 µg/ml streptomycin (Lonza, DE17-602F), has also been treated with different concentrations of 10a in twofold serial dilutions for 24 h. Proteins were extracted from CCHE-45 cells using RIPA Lysis and Extraction Buffer (ThermoScientific, cat. No: 89901) containing 100x Halt Protease and […] Inhibitor Cocktail (ThermoScientific, cat. No. 78444). Followed by protein quantification using Bradford Reagent (Pierce Coomassie Plus (Bradford) Assay Reagent) (ThermoScientific, cat. No. 23238). A total of 50 µg proteins were loaded on a 10% SDS page using 30% Acrylamide/Bisacrylamide 19:1(Serva, cat. No. 10679.01) then transferred by semidry transfer method using Bio-Rad Trans-Blot Turbo transfer system on PVDF Transfer Membrane (ThermoScientific, cat. No. 88518). The membranes were incubated overnight at 4 °C in the primary antibodies Mouse monoclonal Anti-Beta Actin antibody (1:100, abcam, ab8224) and Mouse monoclonal Anti-acetylated α Tubulin (1:200, Santa Cruz Biotechnology, sc-23950). […]

Assay [2] addresses human HDAC9 (Homo sapiens, UniProt Q9UKV0). As to the kind of experiment: HDAC9 inhibitor enzymatic assay, % inhibition at fixed concentration. As to conditions: read-out: %inhibition of HDACs at 10µM of test compound HDAC9.
Assay [3] has as its system CCHE-45 cells (primary choroid plexus carcinoma). The assay is described as follows: Cytotoxicity assay using xCELLigence system. It counts as cell-based. As to conditions: for IC50: xCELLigence, 96 h exposure, mean of three replicates, read-out: CCHE-45 IC50 (µM)±SEM. As to the method:
Established primary Choroid plexus carcinoma (CCHE-45) were cultured as previously described, in RPMI-1640 (Lonza, BE-12-702F) supplemented with 10% Fetal Bovine Serum (FBS, Gibco, 12483–020) and 100 U/ml penicillin and 100 µg/ml streptomycin (Lonza, DE17-602F). Cells were maintained at 37 °C in a 5% CO2 humidified atmosphere.
Cytotoxicity assay by the xCELLigence system was performed using RTCA xCELLigence DP system (ACEA Biosciences, Inc., San Diego, CA, USA) as per manufacturer’s instructions https://www.aceabio.com/products/rtca-dp/, https://www.aceabio.com/products/rtca-sp[65–68]. In brief, after setting up the instruments and blanking the wells with media, CCHE-45 cells were seeded into the 96 well E-plate (ACEA Biosciences) with a density of 20,000 cells/well. Attachment and growth of the cells were monitored every 1 h. Approximately 24 h after seeding, when the cells were in the log growth phase, the cells were exposed to a range of test compound 10a concentrations (3.125, 6.25, 12.5, 25, 50, 100, 200, 400) µM for 96 h. Controls received either medium alone, or medium + DMSO with a final concentration below of 0.5%. For each concentration, duplicates were tested. Experiments were conducted in three biological repeats. Results were analyzed using the RTCA software (Version 2.0). Data was exported and average IC50 value was analyzed.
• Based on previous pilot experiment, the highest SK114 conc. (100µM)
72hrs, thus this experiment was performed with higher concentration
• Cells were incubated with the drug for 96hrs
• Experiment was done in technical duplicates

The target of assay [4] is human HDAC3/NCOR2 (Homo sapiens, UniProt O15379). As to the kind of experiment: HDAC3/NCOR2 inhibitor enzymatic assay, % inhibition at fixed concentration. The conditions noted are these: read-out: %inhibition of HDACs at 10µM of test compound HDAC3.
Chain of human HDAC3/NCOR2 (O15379 whole entry): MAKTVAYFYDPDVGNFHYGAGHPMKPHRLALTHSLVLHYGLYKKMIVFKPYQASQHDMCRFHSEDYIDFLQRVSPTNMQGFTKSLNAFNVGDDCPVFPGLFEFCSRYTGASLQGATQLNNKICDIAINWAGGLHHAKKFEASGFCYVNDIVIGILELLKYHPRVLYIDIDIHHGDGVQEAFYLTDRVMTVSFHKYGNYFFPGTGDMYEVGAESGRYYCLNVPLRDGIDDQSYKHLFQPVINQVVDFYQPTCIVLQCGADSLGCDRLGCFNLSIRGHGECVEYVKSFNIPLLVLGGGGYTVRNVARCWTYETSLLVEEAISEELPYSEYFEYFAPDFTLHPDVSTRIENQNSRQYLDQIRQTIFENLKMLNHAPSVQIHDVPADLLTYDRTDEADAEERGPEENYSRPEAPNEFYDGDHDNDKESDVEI
Chain of human HDAC3/NCOR2 (Q9Y618 395-489 partner limits assumed): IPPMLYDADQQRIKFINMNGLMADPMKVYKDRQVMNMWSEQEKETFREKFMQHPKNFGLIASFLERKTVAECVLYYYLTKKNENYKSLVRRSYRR
Assay [5] deals with human HDAC4 (Homo sapiens, UniProt P56524). As to the kind of experiment: HDAC4 inhibitor enzymatic assay, % inhibition at fixed concentration. The conditions noted are these: read-out: %inhibition of HDACs at 10µM of test compound HDAC4.
Chain of human HDAC4 (P56524 627-1084 limits assumed): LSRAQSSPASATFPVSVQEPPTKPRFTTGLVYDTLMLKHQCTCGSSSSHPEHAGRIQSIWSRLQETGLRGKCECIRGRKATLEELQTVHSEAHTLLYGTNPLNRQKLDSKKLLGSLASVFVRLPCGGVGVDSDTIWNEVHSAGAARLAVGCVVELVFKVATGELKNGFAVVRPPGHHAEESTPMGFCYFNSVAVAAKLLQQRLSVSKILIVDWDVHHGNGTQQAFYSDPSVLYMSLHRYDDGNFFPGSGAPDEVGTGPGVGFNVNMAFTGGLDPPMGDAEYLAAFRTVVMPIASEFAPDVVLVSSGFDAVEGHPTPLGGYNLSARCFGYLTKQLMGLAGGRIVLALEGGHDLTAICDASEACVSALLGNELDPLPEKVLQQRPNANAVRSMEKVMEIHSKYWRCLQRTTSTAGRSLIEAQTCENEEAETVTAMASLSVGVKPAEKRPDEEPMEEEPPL
In assay [6] the target is T1, human HDAC10 (Homo sapiens, UniProt Q969S8).
T1 sequence (Q969S8 1-669): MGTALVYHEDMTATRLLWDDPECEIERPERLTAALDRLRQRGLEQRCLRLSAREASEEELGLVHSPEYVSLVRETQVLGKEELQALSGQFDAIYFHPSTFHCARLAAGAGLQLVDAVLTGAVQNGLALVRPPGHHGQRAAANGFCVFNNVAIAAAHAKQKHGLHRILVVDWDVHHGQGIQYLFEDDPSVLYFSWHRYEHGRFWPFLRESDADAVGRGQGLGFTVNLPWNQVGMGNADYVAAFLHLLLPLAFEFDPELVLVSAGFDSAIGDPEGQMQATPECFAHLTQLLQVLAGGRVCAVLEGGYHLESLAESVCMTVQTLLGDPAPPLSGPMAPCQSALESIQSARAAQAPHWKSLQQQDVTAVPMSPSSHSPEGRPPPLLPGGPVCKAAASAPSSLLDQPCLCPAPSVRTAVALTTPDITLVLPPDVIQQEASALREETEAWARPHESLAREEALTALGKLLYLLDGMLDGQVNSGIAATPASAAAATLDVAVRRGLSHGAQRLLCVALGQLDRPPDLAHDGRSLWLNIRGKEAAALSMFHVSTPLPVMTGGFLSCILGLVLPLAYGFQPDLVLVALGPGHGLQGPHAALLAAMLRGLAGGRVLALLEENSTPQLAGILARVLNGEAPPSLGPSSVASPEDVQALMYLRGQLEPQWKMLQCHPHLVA
The assay is described as follows: HDAC10 inhibitor enzymatic assay, % inhibition at fixed concentration. As to conditions: read-out: %inhibition of HDACs at 10µM of test compound HDAC10.

Each structure is given as a SMILES string. Entries after “also recorded” stand apart in the source; their conditions may differ. Where two headings read alike, the source gives them in different places.

These results are taken from article PMC6522981, “Structure-based design generated novel hydroxamic acid based preferential HDAC6 lead inhibitor with on-target cytotoxic activity against primary choroid plexus carcinoma” (Journal of Enzyme Inhibition and Medicinal Chemistry, 2019).

Chain of human HDAC9 (Q9UKV0 1-1066 isoform Q9UKV0-5): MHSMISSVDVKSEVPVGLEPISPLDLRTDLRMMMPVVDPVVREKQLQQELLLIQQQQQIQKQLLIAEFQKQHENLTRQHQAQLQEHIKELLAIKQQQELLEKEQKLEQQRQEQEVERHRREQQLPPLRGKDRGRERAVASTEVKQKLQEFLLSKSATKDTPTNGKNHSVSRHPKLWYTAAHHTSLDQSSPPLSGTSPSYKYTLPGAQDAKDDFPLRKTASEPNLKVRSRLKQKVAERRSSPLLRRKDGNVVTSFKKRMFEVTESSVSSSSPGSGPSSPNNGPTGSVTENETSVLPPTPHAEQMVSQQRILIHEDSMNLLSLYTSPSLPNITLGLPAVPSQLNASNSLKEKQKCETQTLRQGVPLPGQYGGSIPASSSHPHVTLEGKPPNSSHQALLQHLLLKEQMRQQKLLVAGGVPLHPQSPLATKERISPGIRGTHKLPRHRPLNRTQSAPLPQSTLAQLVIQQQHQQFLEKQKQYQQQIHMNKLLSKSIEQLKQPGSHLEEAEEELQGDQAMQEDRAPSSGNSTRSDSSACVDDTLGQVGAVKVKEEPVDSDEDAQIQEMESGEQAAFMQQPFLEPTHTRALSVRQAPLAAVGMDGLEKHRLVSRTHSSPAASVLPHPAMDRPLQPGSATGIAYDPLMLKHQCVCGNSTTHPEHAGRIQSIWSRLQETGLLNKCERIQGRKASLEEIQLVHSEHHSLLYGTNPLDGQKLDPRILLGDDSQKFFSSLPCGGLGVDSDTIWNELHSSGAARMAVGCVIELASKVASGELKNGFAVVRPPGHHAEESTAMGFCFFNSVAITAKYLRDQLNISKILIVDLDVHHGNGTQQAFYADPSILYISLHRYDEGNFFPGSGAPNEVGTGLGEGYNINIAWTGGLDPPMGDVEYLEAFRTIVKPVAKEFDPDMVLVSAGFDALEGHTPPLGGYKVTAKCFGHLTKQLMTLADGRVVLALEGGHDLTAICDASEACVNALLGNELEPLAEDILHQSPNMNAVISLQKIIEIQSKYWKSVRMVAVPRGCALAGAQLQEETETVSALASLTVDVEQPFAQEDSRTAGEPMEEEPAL

As to `O=C(CCCSc1nc2ccccc2n1Cc1ccccc1)NO` [Compound 10a, 4-((1-benzyl-1H-benzo[d]imidazol-2-yl)thio)-N-hydroxybutanamide], the “acetylated α-tubulin level (Western blot)” value in assay [1] is “significant increase; also recorded: upregulated acetylated α-tubulin”. For the same compound, the inhibition at 10 µM in assay [2] came to 5%; in assay [4], 37%; in assay [5], 1%; in assay [6] it was 28%. Further, the “effect on cell index of CCHE-45, pilot experiment” value in assay [3] (100 µM (highest conc.), 72 hrs) was “lowered cell index and induced cell death”. Moreover, the “effect on cell index (CI) of CCHE-45” value in assay [3] (100 µM, after 24 h from addition of the drug) was “reduced CI to half the maximum CI”; in assay [3] (400 µM or 200 µM, monitoring for 96 h), “quick and dramatic reduction in cell index”. The values for the IC50 in assay [3] (96 h) and in assay [3] were 113 µM and 113 ± 11.1 µM, respectively.
